Assay results as given in US11339193B2, “CDP protein secretion inhibitors” (KEZAR LIFE SCIENCES, priority 2018, dated 2022).
Like-named read-outs stand apart in the source and are kept apart here. Numbered stars: 1 amine (or outer) side, 2 acyl side, 3 side chain; on linkers, the order of the positions; unused ones are H or OH. Square brackets hold non-standard residues; d marks the D form. Peptide text beside a SMILES is read from it. NMeAla(5-Cl-benzothien-3-yl) = CN[C@@H](Cc1csc2ccc(Cl)cc12)C(=O)O; X19 = CN([C@@H](Cc1cn(Cc2ccc(Cl)cc2)c2ccccc12)C(=O)[*:2])[*:1]; X18 = Cc1ccc(Cn2cc(C[C@@H](C(=O)[*:2])N(C)[*:1])c3ccccc32)cc1; X14 = CC#CCn1cc(C[C@@H](C(=O)[*:2])N(C)[*:1])c2ccccc21; Ala(1-cyclohexenyl) = N[C@@H](CC1=CCCCC1)C(=O)O; Butanoyl(2R-oxy,4-CN) = N#CCC[C@@H](O)C(=O)O; X23 = CN([C@@H](CC1=CCCCC1)C(=O)[*:2])[*:1]; Abu(4,4,4-F3) = N[C@@H](CC(F)(F)F)C(=O)O; X12 = O=C([C@H](CC1=CCCC1)N[*:1])[*:2]; NMeL = CN[C@@H](CC(C)C)C(=O)O; NMeA = CN[C@@H](C)C(=O)O

Tests used:
Type in all cases: cell-based
[1] = system: PD1-ss+10aa/Gaussia Luciferase; assay: Dox induced PD1-ss-Gluc assay; details: read-out: PD1ss Gluc IC50
Excerpt: Dox Induced PD1-ss-Gluc Assay
(§1) Flp-In 293 T-REx™ cells were transfected with pcDNA™5/FRT/TO plasmid inserted with cDNA encoding Gaussia Luciferase fused to the 3′ end of cDNA encoding PD1 signal sequence plus 10 amino acids (N-[…]-C) (SEQ ID NO:3). Transfected cells were selected for resistance to the selectable markers Hygromycin and Blasticidin to create a stable cell line that contained the PD1-ss+10aa/Gaussia Luciferase cDNA insert whose expression was regulated under the T-REx™ system. The day before assay, cells were trypsinized and plated in 384-well tissue culture plates. The next day, compound dilutions in DMSO/media containing doxycycline were added to the wells and incubated at 37° C., 5% CO2.

[2] = system: TNFα-FL/Gaussia Luciferase; assay: Dox induced TNFα-FL-Gluc assay; details: read-out: TNFa FL Gluc IC50
Excerpt: Dox Induced TNFα-FL-Gluc Assay
Flp-In 293 T-REx™ cells were transfected with pcDNA™5/FRT/TO plasmid inserted with cDNA encoding Gaussia Luciferase fused to the 3′ end of cDNA encoding full length TNFα (amino acids 1-233). Transfected cells were selected for resistance to the selectable markers Hygromycin and Blasticidin to create a stable cell line that contained the TNFα-FL/Gaussia Luciferase cDNA insert whose expression was regulated under the T-REx™ system. The day before assay, cells were trypsinized and plated in 384-well tissue culture plates. The next day, compound dilutions in DMSO/media containing doxycycline were added to the wells and incubated at 37° C., 5% CO2.

[3] = system: NCI-H929 multiple myeloma cell line; assay: H929 assay (cell viability, Celltiter-Glo); details: Homo sapiens, NCI-H929, read-out: H929 EC50
Experimental: The human multiple myeloma cell line NCI-H929 was cultured in Advanced RPMI 1640 media (Gibco@) supplemented with 6% fetal bovine serum, 2 mM Glutamine, and 1× Penicillin/Streptomycin. On the day of assay, cells were resuspended in RPMI 1640 media supplemented with 10% fetal bovine serum, 2 mM Glutamine, and 1× Penicillin/Streptmycin and plated in 384-well tissue culture plates and treated with compound dilutions in DMSO/media. Plates were incubated at 37° C., 5% CO2 for 48 hours. After 48 hours, Celltiter-Glo@ (Promega) was added to each well and luciferase signal was quantified using Tecan Infinite M1000 Pro for cell viability determination.

[4] = system: Prl-ss+10aa/Gaussia Luciferase; assay: Prl-ss-Gluc assay (constitutively active or 24 hr Dox inducible); details: read-out: Prl IC50
Excerpt: Constitutively Active Prl-ss-Gluc Assay
Flp-In 293 T-REx™ cells were transfected with pcDNA™5/FRT plasmid inserted with cDNA encoding Gaussia Luciferase fused to the 3′ end of cDNA encoding Prl signal sequence plus 10 amino acids (N-[…]-C) (SEQ ID NO:4). Transfected cells were selected for resistance to the selectable markers Hygromycin and Blasticidin to create a stable cell line that constitutively expressed the Prlss+10aa/Gaussia Luciferase fusion protein. The day before assay, cells were trypsinized and plated in 384-well tissue culture plates. The next day, culture media was removed from the wells and replaced with fresh media. Compound dilutions in DMSO/media were added to the wells and incubated at 37° C., 5% CO2.
24 hr Dox Inducible Prl-ss-Gluc Assay
as §1, with “Prl” for “PD1”, “NO:5).” for “NO:3).”, “Prl-ss+10aa/Gaussia” for “PD1-ss+10aa/Gaussia”

HER3ss-Gluc = assay: HER3ss assay; details: read-out: HER3 ss IC50
Experimental: The mature domain of secreted luciferase from Gaussia princeps (GLuc) was cloned into pcDNA5/FRT/TO. The signal sequence plus four amino acids of the mature domain from HER3 ([…]) (SEQ ID NO:8) were cloned upstream of GLuc mature domain and used in transient transfection experiment. HEK-293T T-rex cells were cultured in Dulbecco's modified Eagle's medium with 10% FBS at 5% CO2. Cells were plated 1×10e6 cells per well in a 6-well plate and incubated for 6 h. Cells were transiently transfected with HER3ss-Gluc using Lipofectamine 2000 (Invitrogen). After overnight incubation, transfected cells were replated in a clear-bottomed, black 96-well plate at a density of 20,000 cells per well. Six hours after plating, the cells were treated with doxycycline (1 μg/ml) and increasing concentrations of the indicated compounds for 24 h. Secreted luciferase in the conditioned media was quantified by luminescence using the BioLux Gaussia Luciferase Assay Kit (New England Biolabs, Ipswich, Mass., USA) and a SpectraMax M5 plate reader (Molecular Devices).

[5] = system: U266B1 multiple myeloma cell line; assay: U266 assay (cell viability, Celltiter-Glo); details: Homo sapiens, U-266
Experimental: Cells were plated in 384-well tissue culture plates and treated with compound dilutions in DMSO/media. Plates were incubated at 37° C., 5% CO2 for 48 hours. After 48 hours, Celltiter-Glo@ (Promega) was added to each well and luciferase signal was quantified using Tecan Infinite M1000 Pro for cell viability determination.

[6] = Flp-In 293 T-REx cells, doxycycline, 24 hours
[7] = HEK-293T T-rex cells, transient transfection, doxycycline, 24 h
[8] = Flp-In 293 T-REx cells, 24 hours

Row | IC50 [1, 6] [nM] | IC50 [2, 6] [nM] | EC50 ([3]; I.A.) [nM] | IC50 ([4]; I.A.) [nM] | IC50 (HER3ss-Gluc; [7]) [nM] | EC50 ([5]; I.A.) [nM] | EC50 ([3]; 48 hours, cell viability) [nM] | IC50 [4, 8] [nM] | IC50 ([2]; I.A.) [nM] | SMILES | EC50 ([5]; 48 hours, cell viability) [nM] | IC50 ([1]; I.A.) [nM] | IC50 (HER3ss-Gluc; I.A.) [nM]
1 | 520 | 2880 | > 25000 | > 25000 | 38 | > 25000 |  |  |  | CC(C)C[C@@H]1NC(=O)[C@H](Cc2csc3ccc(Cl)cc23)N(C)C(=O)[C@H](CC(F)(F)F)NC(=O)[C@H](CC(C)C)N(C)C(=O)[C@H](CC(F)(F)F)NC(=O)[C@@H](CCC#N)OC(=O)[C@H](C)N(C)C1=O [C-90] (cyclo(L[NMeA][Butanoyl(2R-oxy,4-CN)][Abu(4,4,4-F3)][NMeL][Abu(4,4,4-F3)][NMeAla(5-Cl-benzothien-3-yl)])) |  |  | 
2 | 172 | 879 |  | > 25000 | 33 | > 25000 | 3730 |  |  | CC(C)C[C@@H]1NC(=O)[C@H](CC(C)C)N(C)C(=O)[C@H](CC(F)(F)F)NC(=O)[C@@H](CCC#N)OC(=O)[C@H](C)N(C)C(=O)[C@H](CC2=CCCC2)NC(=O)[C@H](Cc2csc3ccc(Cl)cc23)N(C)C1=O [C-89] (cyclo(L[NMeAla(5-Cl-benzothien-3-yl)][X12][NMeA][Butanoyl(2R-oxy,4-CN)][Abu(4,4,4-F3)][NMeL])) |  |  | 
3 | 37 | 77 |  |  | 72 | > 25000 | 608 | 802 |  | CC(C)C[C@@H]1NC(=O)[C@H](Cc2cn(Cc3ccc(Cl)cc3)c3ccccc23)N(C)C(=O)[C@H](CC(F)(F)F)NC(=O)[C@H](CC(C)C)N(C)C(=O)[C@H](CC(F)(F)F)NC(=O)[C@@H](CCC#N)OC(=O)[C@H](C)N(C)C1=O [C-84] (cyclo(L[NMeA][Butanoyl(2R-oxy,4-CN)][Abu(4,4,4-F3)][NMeL][Abu(4,4,4-F3)][X19])) |  |  | 
4 | 278 | 672 |  |  | 38 |  | 3390 | 5700 |  | CC(C)C[C@@H]1NC(=O)[C@H](Cc2csc3ccc(Cl)cc23)N(C)C(=O)[C@H](CC(C)C)NC(=O)[C@H](CC(C)C)N(C)C(=O)[C@H](CC(C)C)NC(=O)[C@@H](CCC#N)OC(=O)[C@H](C)N(C)C1=O [C-93] (HELM PEPTIDE1{L.[meA].[N#CCC[C@@H](O[*:1])C(=O)[*:2]].L.[meL].L.[CN([C@@H](Cc1csc2ccc(Cl)cc12)C(=O)[*:2])[*:1]]}$PEPTIDE1,PEPTIDE1,1:R1-7:R2$$$V2.0) | 16200 |  | 
5 | 567 |  | > 25000 | > 25000 | 10 | > 25000 |  |  | > 25000 | CC(C)C[C@@H]1NC(=O)[C@H](Cc2csc3ccc(Cl)cc23)N(C)C(=O)[C@H](CC2=CCCC2)NC(=O)[C@H](CC(C)C)N(C)C(=O)[C@H](CC2=CCCCC2)NC(=O)[C@@H](CCC#N)OC(=O)[C@H](C)N(C)C1=O [C-86] (cyclo(L[NMeA][Butanoyl(2R-oxy,4-CN)][Ala(1-cyclohexenyl)][NMeL][X12][NMeAla(5-Cl-benzothien-3-yl)])) |  |  | 
6 |  |  | > 25000 | > 25000 | 11 | > 25000 |  |  | > 25000 | CC(C)C[C@@H]1NC(=O)[C@H](Cc2csc3ccc(Cl)cc23)N(C)C(=O)[C@H](CC2=CCCCC2)NC(=O)[C@H](CC(C)C)N(C)C(=O)[C@H](CC2=CCCCC2)NC(=O)[C@@H](CCC#N)OC(=O)[C@H](C)N(C)C1=O [C-87] (cyclo(L[NMeA][Butanoyl(2R-oxy,4-CN)][Ala(1-cyclohexenyl)][NMeL][Ala(1-cyclohexenyl)][NMeAla(5-Cl-benzothien-3-yl)])) |  | > 25000 | 
7 | 42 | 103 |  |  | 81 | > 25000 | 603 | 1090 |  | Cc1ccc(Cn2cc(C[C@H]3C(=O)N[C@@H](CC(C)C)C(=O)N(C)[C@@H](C)C(=O)O[C@H](CCC#N)C(=O)N[C@@H](CC(F)(F)F)C(=O)N(C)[C@@H](CC(C)C)C(=O)N[C@@H](CC(F)(F)F)C(=O)N3C)c3ccccc32)cc1 [C-83] (cyclo(L[NMeA][Butanoyl(2R-oxy,4-CN)][Abu(4,4,4-F3)][NMeL][Abu(4,4,4-F3)][X18])) |  |  | 
8 | 274 | 986 |  |  | 124 | > 25000 | 4880 | 9800 |  | CC#CCn1cc(C[C@H]2C(=O)N[C@@H](CC(C)C)C(=O)N(C)[C@@H](C)C(=O)O[C@H](CCC#N)C(=O)N[C@@H](CC(F)(F)F)C(=O)N(C)[C@@H](CC(C)C)C(=O)N[C@@H](CC(F)(F)F)C(=O)N2C)c2ccccc21 [C-91] (cyclo(L[NMeA][Butanoyl(2R-oxy,4-CN)][Abu(4,4,4-F3)][NMeL][Abu(4,4,4-F3)][X14])) |  |  | 
9 | 259 | 889 |  |  | 35 | > 25000 | 4000 | 17900 |  | CC(C)C[C@@H]1NC(=O)[C@H](Cc2csc3ccc(Cl)cc23)N(C)C(=O)[C@H](CC(C)C)NC(=O)[C@H](CC(C)C)N(C)C(=O)[C@H](CC2=CCCC2)NC(=O)[C@@H](CCC#N)OC(=O)[C@H](C)N(C)C1=O [C-98] (cyclo(L[NMeA][Butanoyl(2R-oxy,4-CN)][X12][NMeL]L[NMeAla(5-Cl-benzothien-3-yl)])) |  |  | 
10 | 813 | 3860 |  | > 25000 | 98 | > 25000 | 9880 |  |  | CC(C)C[C@@H]1NC(=O)[C@H](Cc2csc3ccc(Cl)cc23)N(C)C(=O)[C@H](CC(F)(F)F)NC(=O)[C@H](CC(C)C)N(C)C(=O)[C@H](CC(C)C)NC(=O)[C@@H](CCC#N)OC(=O)[C@H](C)N(C)C1=O [C-92] (cyclo(L[NMeA][Butanoyl(2R-oxy,4-CN)]L[NMeL][Abu(4,4,4-F3)][NMeAla(5-Cl-benzothien-3-yl)])) |  |  | 

Row | SMILES | IC50 [1, 6] [nM] | IC50 [2, 6] [nM] | EC50 ([3]; I.A.) [nM] | IC50 ([4]; I.A.) [nM] | IC50 (HER3ss-Gluc; [7]) [nM] | EC50 ([5]; I.A.) [nM] | EC50 ([3]; 48 hours, cell viability) [nM] | IC50 [4, 8] [nM] | IC50 ([2]; I.A.) [nM] | EC50 ([5]; 48 hours, cell viability) [nM] | IC50 ([1]; I.A.) [nM] | IC50 (HER3ss-Gluc; I.A.) [nM]
11 | CC(C)C[C@@H]1NC(=O)[C@H](Cc2csc3ccc(Cl)cc23)N(C)C(=O)[C@H](CC(C)C)NC(=O)[C@H](CC2=CCCCC2)N(C)C(=O)[C@H](CC(F)(F)F)NC(=O)[C@@H](CCC#N)OC(=O)[C@H](C)N(C)C1=O [C-80] (cyclo(L[NMeA][Butanoyl(2R-oxy,4-CN)][Abu(4,4,4-F3)][X23]L[NMeAla(5-Cl-benzothien-3-yl)])) |  |  |  |  |  |  | 3440 | 23700 | > 25000 | 5680 | > 25000 | > 25000
